Structures are written as SMILES. Bounds are passed on as bounds.

The target in the test is V1a (Homo sapiens, UniProt P37288). Put plainly: Human vasopression V1a receptor binding assay. The arrangement: host or cells: CHO cells (hV1a cell line), whole adherent cells. To be noted: hV1a cell line (CHO); for Ki: Table 18; for IC50: 1 nM 3H-AVP, Table 17, read-out: V1a Binding Affinity (IC50 (nM)). The method, then: Human vasopression V1a receptor binding assay. A cell line expressing the human V1a receptor in CHO cells (henceforth referred to as the hV1a cell line) was obtained from Dr. Michael Brownstein, NIMH, Bethesda, Md., USA. The hV1a cDNA sequence is described by Thibonnier et al., Journal of Biological Chemistry, 269, 3304-3310 (1994), and the expression method was the same as described by Morel et al. (1992). The hV1a cell line was grown in alpha-MEM with 10% fetal bovine serum and 250 ug/ml G418 (Gibco, Grand Island, N.Y., USA). For competitive binding assay, hV1a cells were plated into 6-well culture plate at 1:10 dilution from a confluency flask, and maintained in culture for at least two days. Culture medium was then removed, cells were washed with 2 ml binding buffer (25 mM Hepes, 0.25% BSA, 1×DMEM, PH=7.0). To each well, 990 μl binding buffer containing 1 nM 3H-AVP was added, and followed by 10 μl series diluted Example compounds dissolved in DMSO. […] 100 nM cold AVP (Sigma) was used to assess non-specific binding. Cells were incubated for 45 minutes at 37° C., assay mixture was removed and each well was washed three times with PBS (pH=7.4). 1 ml 2% SDS was added per well and plates were let sit for 30 minutes. The whole content in a well was transferred to a scintillation vial. Each well was rinsed with 0.5 ml PBS which was then added to the corresponding vial. Scintillation fluid (Ecoscint, National Diagnostics, Atlanta, Ga.) was then added at 3 ml per vial. Samples were counted in a liquid scintillation counter (Beckman LS3801). IC50 values were calculated by Prism Curve fitting software.
All of the alkanedioic esters and amides exemplified in the foregoing examples dissolved in DMSO were tested in this assay. Binding curves were generated according to methods described by Thibonnier et al. (1994). [^3H]-AVP was added to the hV1a cell cultures followed by 10 fold dilutions of each test compound.

V1a, sequence (P37288 whole entry): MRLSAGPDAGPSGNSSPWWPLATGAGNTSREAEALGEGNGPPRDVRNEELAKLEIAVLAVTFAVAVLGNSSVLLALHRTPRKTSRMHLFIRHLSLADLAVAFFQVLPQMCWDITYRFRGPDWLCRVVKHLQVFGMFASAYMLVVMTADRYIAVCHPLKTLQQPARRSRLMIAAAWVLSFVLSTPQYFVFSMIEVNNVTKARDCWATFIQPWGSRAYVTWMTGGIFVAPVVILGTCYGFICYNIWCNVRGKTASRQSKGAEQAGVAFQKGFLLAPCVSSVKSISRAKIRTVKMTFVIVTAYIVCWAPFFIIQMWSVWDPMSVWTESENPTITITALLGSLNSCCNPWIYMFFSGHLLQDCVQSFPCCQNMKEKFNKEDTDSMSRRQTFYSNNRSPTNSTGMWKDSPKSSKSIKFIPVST

`O=C(NCc1cccc(C(F)(F)F)c1)C(C(=O)N1CCC(N2CCCCC2)CC1)N1C(=O)[C@@H](N2C(=O)OC[C@@H]2c2ccccc2)[C@H]1/C=C/c1ccccc1` (mixture of isomers) [Example 37]: the Ki turned out to be 3.39 nM.
Still for that read-out and setting: the figure for `O=C(NCc1cccc(C(F)(F)F)c1)C(C(=O)N1CCN(CCc2ccccc2)CC1)N1C(=O)[C@@H](N2C(=O)OC[C@@H]2c2ccccc2)[C@H]1/C=C/c1ccccc1` (mixture of isomers) [Example 38] is 85 nM; for `O=C(NCc1cccc(C(F)(F)F)c1)C(C(=O)NC1CCN(Cc2ccccc2)CC1)N1C(=O)[C@@H](N2C(=O)OC[C@@H]2c2ccccc2)[C@H]1/C=C/c1ccccc1` (mixture of isomers) [Example 39] it is 13.3 nM.
The same measure, in the same setting: the figure for `CCCCN1CCN(C(=O)C(C(=O)NCc2cccc(C(F)(F)F)c2)N2C(=O)[C@@H](N3C(=O)OC[C@@H]3c3ccccc3)[C@H]2/C=C/c2ccccc2)CC1` (mixture of isomers) [Example 40] is 6.5 nM; for `CC(C)N1CCN(C(=O)C(C(=O)NCc2cccc(C(F)(F)F)c2)N2C(=O)[C@@H](N3C(=O)OC[C@@H]3c3ccccc3)[C@H]2/C=C/c2ccccc2)CC1` (mixture of isomers) [Example 41] it is 18.2 nM.
For `O=C(NCc1cccc(C(F)(F)F)c1)C(C(=O)N1CCC(CCN2CCCCC2)CC1)N1C(=O)[C@@H](N2C(=O)OC[C@@H]2c2ccccc2)[C@H]1/C=C/c1ccccc1` (mixture of isomers) [Example 42A], the half-maximal inhibitory concentration (IC50) stood at 1.77 nM and the Ki amounted to 1.17 nM.
As to `O=C(NCc1cccc(C(F)(F)F)c1)C(C(=O)N1CCN(C2CCCCC2)CC1)N1C(=O)[C@@H](N2C(=O)OC[C@@H]2c2ccccc2)[C@H]1/C=C/c1ccccc1` (mixture of isomers) [Example 42], the affinity corresponds to a Ki of 26.4 nM. That is a double-digit nanomolar value.
Consider `O=C(C(COCc1ccccc1)N1C(=O)[C@@H](N2C(=O)OC[C@@H]2c2ccccc2)[C@H]1/C=C/c1ccccc1)N1CCN(C2CCCCC2)CC1` (mixture of isomers) [Example 232D], for which the IC50 was found to be 2.04 nM and affinity was put at a Ki of 1.25 nM.
`CCCCN1CCN(C(=O)CCC(C(=O)NCc2cccc(C(F)(F)F)c2)N2C(=O)C(N3C(=O)OCC3c3ccccc3)C2C=Cc2ccccc2)CC1` (single isomer, unassigned) [Example 103] displayed a Ki of 0.49 nM.
Still for that read-out and setting: the result for `CC(C)N1CCN(C(=O)CCC(C(=O)NCc2cccc(C(F)(F)F)c2)N2C(=O)C(N3C(=O)OCC3c3ccccc3)C2C=Cc2ccccc2)CC1` (single isomer, unassigned) [Example 104] reads 1.13 nM.
In the case of `O=C(NC1CCCc2ccccc21)C(CCC(=O)N1CCN(C2CCCCC2)CC1)N1C(=O)C(N2C(=O)OCC2c2ccccc2)C1C=Cc1ccccc1` (single isomer, unassigned) [Example 214], the IC50 was 1.86 nM and the affinity corresponds to a Ki of 1.14 nM.
Take `O=C(NC1CCCc2ccccc21)C(CCC(=O)N1CCN(C2CCCCC2)CC1)N1C(=O)C(N2C(=O)OCC2c2ccccc2)C1C=Cc1ccccc1` (single isomer, unassigned) [Example 215]: the IC50 is 0.61 nM and the affinity corresponds to a Ki of 0.38 nM.
`O=C(C[C@@H](C(=O)NCc1cccc(C(F)(F)F)c1)N1C(=O)[C@@H](N2C(=O)OC[C@@H]2c2ccccc2)[C@H]1/C=C/c1ccccc1)NC1CCN(Cc2ccccc2)CC1` [Example 63] yielded a Ki of 1.13 nM.
Same read-out and setting: the result for `O=C(NCc1cccc(C(F)(F)F)c1)[C@H](CC(=O)N1CCCN(Cc2ccccc2)CC1)N1C(=O)[C@@H](N2C(=O)OC[C@@H]2c2ccccc2)[C@H]1/C=C/c1ccccc1` [Example 82] reads 5.12 nM; that for `O=C(C[C@@H](C(=O)NCc1cccc(C(F)(F)F)c1)N1C(=O)[C@@H](N2C(=O)OC[C@@H]2c2ccccc2)[C@H]1/C=C/c1ccccc1)N[C@H]1CCN(Cc2ccccc2)C1` [Example 85], 3.6 nM.
Consider `O=C(NCc1cccc(C(F)(F)F)c1)[C@H](CC(=O)N1CCC(CCN2CCCCC2)CC1)N1C(=O)[C@@H](N2C(=O)OC[C@@H]2c2ccccc2)[C@H]1/C=C/c1ccccc1` [Example 86A], for which the IC50 worked out at 9.79 nM and the affinity corresponds to a Ki of 6 nM.
As for `O=C(NCc1cccc(C(F)(F)F)c1)[C@H](CCC(=O)N1CCN(Cc2ccccc2)CC1)N1C(=O)[C@@H](N2C(=O)OC[C@@H]2c2ccccc2)[C@H]1/C=C/c1ccccc1` [Example 95], the Ki was found to be 1.08 nM.
In turn, `O=C(NCc1cccc(C(F)(F)F)c1)[C@H](CCC(=O)N1CCN(Cc2ccc3c(c2)OCO3)CC1)N1C(=O)[C@@H](N2C(=O)OC[C@@H]2c2ccccc2)[C@H]1/C=C/c1ccccc1` [Example 96] registered a Ki of 2.66 nM.
Consider `O=C(NCc1cccc(C(F)(F)F)c1)[C@H](CCC(=O)N1CCN(CCC2CCCCC2)CC1)N1C(=O)[C@@H](N2C(=O)OC[C@@H]2c2ccccc2)[C@H]1/C=C/c1ccccc1` [Example 111], for which the Ki was 0.82 nM. Against the preceding compound, the Ki is about 3.2-fold lower.
Same read-out and setting: the result for `O=C(NCc1cccc(C(F)(F)F)c1)[C@H](CCC(=O)N1CCN(CCN2CCOCC2)CC1)N1C(=O)[C@@H](N2C(=O)OC[C@@H]2c2ccccc2)[C@H]1/C=C/c1ccccc1` [Example 112] reads 0.8 nM.
With `O=C(NCc1cccc(C(F)(F)F)c1)[C@H](CCC(=O)N1CCC(CCN2CCCCC2)CC1)N1C(=O)[C@@H](N2C(=O)OC[C@@H]2c2ccccc2)[C@H]1/C=C/c1ccccc1` [Example 120A], the 50% inhibitory concentration (IC50) came to 16.2 nM and the Ki turned out to be 9.9 nM.
Regarding `CCCN1CCN(C(=O)CC[C@@H](C(=O)NCc2cccc(C(F)(F)F)c2)N2C(=O)[C@@H](N3C(=O)OC[C@@H]3c3ccccc3)[C@H]2/C=C/c2ccccc2)CC1` [Example 120B], the IC50 is 2.93 nM and the Ki amounted to 1.79 nM.
Consider `O=C(NCc1cccc(C(F)(F)F)c1)[C@H](CCC(=O)N1CCN(CC2CCCCC2)CC1)N1C(=O)[C@@H](N2C(=O)OC[C@@H]2c2ccccc2)[C@H]1/C=C/c1ccccc1` [Example 120], for which the inhibitory constant (Ki) was 0.46 nM. This lies in the sub-nanomolar range.
In the case of `O=C(NC1(c2ccccc2)CCCC1)[C@H](CC(=O)N1CCC(N2CCCCC2)CC1)N1C(=O)[C@@H](N2C(=O)OC[C@@H]2c2ccccc2)[C@H]1/C=C/c1ccccc1` [Example 132D], the IC50 was 6.3 nM and the Ki was determined as 3.9 nM.
For the compound `O=C(NCc1cccc(C(F)(F)F)c1)[C@@H](CC(=O)N1CCC(CCN2CCCCC2)CC1)N1C(=O)[C@@H](N2C(=O)OC[C@@H]2c2ccccc2)[C@H]1/C=C/c1ccccc1` [Example 134A], the IC50 turned out to be 12.9 nM and the affinity corresponds to a Ki of 7.9 nM.
The matching figures for `O=C(C[C@H](C(=O)NCc1cccc(C(F)(F)F)c1)N1C(=O)[C@@H](N2C(=O)OC[C@@H]2c2ccccc2)[C@H]1/C=C/c1ccccc1)NC1CCN(Cc2ccccc2)CC1` [Example 134C]: 9.1 nM and 5.58 nM.
The matching figures for `O=C(NCc1cccc(C(F)(F)F)c1)[C@@H](CC(=O)N1CCC(CN2CCCCC2)CC1)N1C(=O)[C@@H](N2C(=O)OC[C@@H]2c2ccccc2)[C@H]1/C=C/c1ccccc1` [Example 134G]: 6 nM and 3.7 nM.
The matching figures for `CC(C)(NC(=O)[C@@H](CC(=O)N1CCC(N2CCCCC2)CC1)N1C(=O)[C@@H](N2C(=O)OC[C@@H]2c2ccccc2)[C@H]1/C=C/c1ccccc1)c1ccccc1` [Example 134J]: 5.29 nM and 3.25 nM.
As to `O=C(NCc1cccc(C(F)(F)F)c1)[C@@H](CCC(=O)N1CCN(CCc2ccccc2)CC1)N1C(=O)[C@@H](N2C(=O)OC[C@@H]2c2ccccc2)[C@H]1/C=C/c1ccccc1` [Example 136], the Ki was found to be 33 nM.
`CCCCN1CCN(C(=O)CC[C@H](C(=O)NCc2cccc(C(F)(F)F)c2)N2C(=O)[C@@H](N3C(=O)OC[C@@H]3c3ccccc3)[C@H]2/C=C/c2ccccc2)CC1` [Example 137] displayed a Ki of 10.5 nM.
`CC(C)N1CCN(C(=O)CC[C@H](C(=O)NCc2cccc(C(F)(F)F)c2)N2C(=O)[C@@H](N3C(=O)OC[C@@H]3c3ccccc3)[C@H]2/C=C/c2ccccc2)CC1` [Example 138] returned a Ki of 13 nM.
For `O=C(NCc1cccc(C(F)(F)F)c1)[C@@H](CCC(=O)N1CCN(C2CCCCC2)CC1)N1C(=O)[C@@H](N2C(=O)OC[C@@H]2c2ccccc2)[C@H]1/C=C/c1ccccc1` [Example 139], the Ki came to 5.84 nM.
Regarding `O=C(NCc1cccc(OC(F)(F)F)c1)[C@H](CCC(=O)N1CCN(C2CCCCC2)CC1)N1C(=O)[C@@H](N2C(=O)OC[C@@H]2c2ccccc2)[C@H]1/C=C/c1ccccc1` [Example 172], the IC50 was 4.5 nM and the affinity, expressed as Ki, was 2.78 nM.
Turning to `O=C(NCc1ccc(Cl)c(Cl)c1)[C@H](CCC(=O)N1CCN(C2CCCCC2)CC1)N1C(=O)[C@@H](N2C(=O)OC[C@@H]2c2ccccc2)[C@H]1/C=C/c1ccccc1` [Example 173], the 50% inhibitory concentration (IC50) is less than 100 nM.

The values above are taken from patent publication US9597314B2, “Beta-lactamylalkanoic acids for treating premenstrual disorders” (AZEVAN PHARMACEUTICALS, INC., priority 2005, dated 2017).
